The values below come from patent publication US20250099475A1, “METHODS OF TREATING HYPERTENSION BY PERIODIC SUPPRESSION OF ALDOSTERONE SYNTHASE” (Mineralys Therapeutics, Inc., priority 2022, published 2025).

Read-outs that look alike come from different tables or passages of the source.

Series [1] is described as follows: Phase 1 part 2 multiple ascending dose: pharmacokinetics. The class given is in vivo, human. The following applies: for half-life: male, human, plasma, oral. As for the experimental part:
A 4-part, Phase 1 randomized, double-blind, placebo-controlled, first-in-human study was performed to determine the safety, tolerability, PK, and PD of single ascending doses (SADs; part 1) and multiple ascending doses (MADs; part 2) of Compound A HBr in healthy participants. The study also assessed whether there were sex (part 3) and age-related (part 4) effects on the PK of a single dose of Compound A HBr. The study was approved by the local independent ethics committee; the BEBO foundation in Assen, Netherlands; and the Central Committee on Research Involving Human Subjects in The Hague, Netherlands; and conducted according to the provisions of the Declaration of Helsinki. Written informed consent was obtained from each study participant before conducting any protocol-related procedures.
In part 2, Compound A HBr or placebo was administered to a total of 36 healthy Caucasian men aged 19 to 54 years (inclusive) in 3 cohorts of 12 participants each. In each cohort, 9 participants were randomized to receive multiple doses of Compound A HBr and 3 participants were randomized to receive matching placebo. The participants received daily doses in the fed state from Day 1 to Day 7. The doses were administered in an ascending order per cohort. Progression to the next dose level and dose selection were based on available data from part 1 and the preceding dose cohort in part 2 (safety, tolerability, and PD data [up to 48 hours post-final dose] and available PK data [up to 24 hours post-final dose] from a minimum of 10 participants [Compound A HBr n≥7] in the preceding dose cohort). The final dose levels of Compound A HBr for part 2 were 40, 120, and 360 mg. An ACTH challenge test was performed on Day −2 and on Day 6 to evaluate Compound A HBr selectivity for aldosterone synthesis. Plasma concentrations of aldosterone and 11-deoxycortisol and serum concentrations of cortisol and 11-DOC were measured pre-ACTH dose and 30 and 60 minutes post-ACTH dose on Day −2 and Day 6.
Plasma PK parameters were derived by non-compartmental analysis using WinNonlin® (version 6.3). Dose proportionality was assessed using the power model with AUC0-∞, AUC0-last, and Cmax for part 1 (SAD) and with AUC0-last, AUC0-∞, AUC0-τ, and Cmax for part 2 (MAD). A linear model (ln(Y)=α+β×ln(X), where Y is the pharmacokinetic parameter and X is the dose) was used to fit the power model, after log-transformation of the parameters. Dose proportionality was concluded if the 95% confidence interval (CI) for slope (β) included the value 1.
An analytical method for the determination of Compound A in human plasma (dipotassium ethylenediaminetetraacetic acid [K2-EDTA]) and human urine using solid-phase extraction and high-performance liquid chromatography with mass spectrometric detection was successfully validated over the concentration range 0.1000 ng/mL (lower limit of quantification) to 100.0 ng/mL prior to initiation of the clinical trial. […] For all other analytes, validated quantitative measurement methods were used.

Series [2] concerns the target T1, human CYP11B2 (hCYP11B2) (Homo sapiens, UniProt P19099).
T1 construct: expressed in transfected cells; host or cells: V79 cells (mitochondrial fraction)
The series is described as follows: Assay of hCYP11B2 inhibition (11-DOC to aldosterone). The class given is biochemical. Particulars: mitochondrial fraction of V79 cells stably expressing hCYP11B2; substrate 11-DOC; read-out: Inhibition constant (Ki) hCYP11B2. As for the experimental part: The inhibitory effects of Compound A on human CYP 11B1 (hCYP11B1) and human CYP11B2 (hCYP11B2) enzyme activity were evaluated by determining the enzymatic conversion rates of 11-deoxycortisol to cortisol for hCYP11B1 and 11-DOC to aldosterone for hCYP11B2.

Series [3] has as its system human adrenocortical NCI-H295R cell culture. The series is described as follows: Inhibitory effects on adrenal steroidogenesis. The class given is cell-based. The following applies: 3 days of incubation. The method, then:
Multiple concentrations of Compound A and aminoglutethimide (positive control) were evaluated in a human adrenocortical NCI-H295R cell culture. The effect of Compound A on adrenal steroidogenesis was determined by measurement of 12 steroid hormones in the culture medium after 3 days of incubation. The following steroids were measured: pregnenolone, 11-deoxycortisol, 17α-hydroxypregnenolone, 11-DOC, dehydroepiandrosterone, corticosterone, progesterone, cortisol, 17α-hydroxyprogesterone, aldosterone, androstenedione, and testosterone.

For series [4], the system named is cardiovascular system. The series is described as follows: Cardiovascular system in halothane-anesthetized dogs. The class given is in vivo, dog. The following applies: intravenous infusion up to 3-mg/kg as free base; non-GLP. As for the experimental part: Effects of Compound A on the cardiovascular system were evaluated with halothane-anesthetized dogs. Doses of 0, 0.3, 1, and 3 mg/kg of Compound A as free base were infused intravenously in ascending order to the same 3 male dogs at 0.1 mL/kg/min for 10 minutes cumulatively with 30 minutes interval between the start of infusion. Heart rate, systolic, diastolic, and mean blood pressure, cardiac output, total peripheral resistance, left ventricular end-diastolic pressure, maximum upstroke velocity of the left ventricular pressure, and electrocardiogram parameters (PR interval, QRS duration, QT interval, and QTcV) were evaluated.

Series [5] concerns cardiovascular system. The series is described as follows: Cardiovascular system in telemetered monkeys. The class given is in vivo, cynomolgus monkey. The following applies: single oral doses up to 100-mg/kg as free base. The method, then:
Effects of Compound A on the cardiovascular system were evaluated with conscious telemetered cynomolgus monkeys. Single doses of 0, 10, 30, or 100 mg/kg of Compound A as free base were orally administered to four male monkeys in a Latin-square design with a 7-day interval between dosing. Blood pressure, heart rate, and electrocardiogram parameters (PR interval, QRS duration, QT interval, and QTcB) were evaluated up to 24 hours after each dosing.

T1 sequence (P19099 25-503): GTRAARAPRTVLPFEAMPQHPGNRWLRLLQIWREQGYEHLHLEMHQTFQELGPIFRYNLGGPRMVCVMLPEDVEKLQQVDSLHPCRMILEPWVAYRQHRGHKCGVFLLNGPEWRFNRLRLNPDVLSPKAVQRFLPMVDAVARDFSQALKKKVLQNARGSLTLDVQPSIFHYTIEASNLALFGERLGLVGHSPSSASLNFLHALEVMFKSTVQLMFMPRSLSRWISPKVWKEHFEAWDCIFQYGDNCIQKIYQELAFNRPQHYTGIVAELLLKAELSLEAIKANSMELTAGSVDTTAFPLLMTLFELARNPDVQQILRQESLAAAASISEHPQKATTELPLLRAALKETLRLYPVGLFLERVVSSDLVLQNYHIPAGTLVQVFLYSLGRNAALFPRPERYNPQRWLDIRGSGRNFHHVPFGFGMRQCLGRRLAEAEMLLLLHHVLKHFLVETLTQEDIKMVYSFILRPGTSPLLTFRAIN

Take `CC(=O)N[C@H]1CC[C@H](NC(=O)CN2CCN(c3nncc(-c4ccc(C)cc4)n3)CC2)CC1` [Compound A HBr]: the “AUC0-24, mean (SD)” value in series [1] (40 mg once daily, Day 1, fed) is 1574 (282) ng × h/mL; in series [1] (40 mg once daily, Day 7, fed), 1795 (312) ng × h/mL; in series [1] (120 mg once daily, Day 1, fed), 4876 (1024) ng × h/mL; in series [1] (120 mg once daily, Day 7, fed), 5816 (1315) ng × h/mL; in series [1] (360 mg once daily, Day 1, fed), 19335 (3111) ng × h/mL; in series [1] (360 mg once daily, Day 7, fed), 21825 (3955) ng × h/mL. In addition, the “Cmax, mean (SD)” value in series [1] (40 mg once daily, Day 1, fed) was 252 (64) ng/mL; in series [1] (40 mg once daily, Day 7, fed), 365 (46) ng/mL; in series [1] (120 mg once daily, Day 1, fed) it was 887 (291) ng/mL; in series [1] (120 mg once daily, Day 7, fed) it was 1039 (343) ng/mL; in series [1] (360 mg once daily, Day 1, fed) it was 3220 (1171) ng/mL; in series [1] (360 mg once daily, Day 7, fed), 3812 (1282) ng/mL. The “Tmax, median and range” value was 3 (0.5-5) h in series [1] (40 mg once daily, Day 1, fed); 1.5 (0.5-5) h in series [1] (40 mg once daily, Day 7, fed); 3 (0.5-8) h in series [1] (120 mg once daily, Day 1, fed); 2.5 (1-4)^ h in series [1] (120 mg once daily, Day 7, fed); 3 (2-5) h in series [1] (360 mg once daily, Day 1, fed); 2 (1-3) h in series [1] (360 mg once daily, Day 7, fed). In addition, the “T 1/2, mean (SD)” value in series [1] (40 mg once daily, Day 7, fed) is reported as 9 (2) h; in series [1] (120 mg once daily, Day 7, fed) it was 12 (2) h; in series [1] (360 mg once daily, Day 7, fed), 9 (2) h. For the same compound, the half-life is 5 h in series [1] (40 mg once daily, Day 1, fed, read-out: T 1/2, mean (SD) (converted)); 4 h in series [1] (120 mg once daily, Day 1, fed, read-out: T 1/2, mean (SD) (converted)); 4 h in series [1] (360 mg once daily, Day 1, fed, read-out: T 1/2, mean (SD) (converted)); roughly 10 h in series [1] (once-daily dosing, read-out: t1/2 on Day 7 (converted)). In series [1] (once-daily 40 to 360 mg), the “Steady state achieved by” value is roughly 5 days.

What is called Ki is the equilibrium dissociation constant of an inhibitor or competing ligand from its target. Turning to `CC(=O)N[C@H]1CC[C@H](NC(=O)CN2CCN(c3nncc(-c4ccc(C)cc4)n3)CC2)CC1` [Compound A], the Ki in series [2] is 1.27 nM. In series [3] (concentrations ≥0.11 μmol/L), the “reduction in aldosterone secretion” value is reported as greater than 50%. The compound further registered a reduction in corticosterone in series [3] (concentrations ≥1 μmol/L) greater than 50%. Also, the “reductions in pregnenolone, progesterone, 17α-hydroxyprogesterone, 11-DOC, corticosterone, and cortisol” value in series [3] (top concentration 3 μmol/L) is on record as less than 50%. Moreover, the “effects on the cardiovascular system” value in series [4] was “no effects”. Besides, the “effects on cardiovascular parameters (blood pressure, heart rate, electrocardiogram)” value in series [5] was “no effects”.
